Among the data in BindingDB's records for doi:10.7270/Q2F769WQ (University of Pittsburgh, 2007) are IC50 values, retold here.

Broadly, the IC50 is the point on the concentration scale where inhibition reaches its midpoint.

For this test, the target named is T1, Dual specificity protein phosphatase 1 (Homo sapiens, UniProt P28562).
T1 sequence (P28562 whole entry): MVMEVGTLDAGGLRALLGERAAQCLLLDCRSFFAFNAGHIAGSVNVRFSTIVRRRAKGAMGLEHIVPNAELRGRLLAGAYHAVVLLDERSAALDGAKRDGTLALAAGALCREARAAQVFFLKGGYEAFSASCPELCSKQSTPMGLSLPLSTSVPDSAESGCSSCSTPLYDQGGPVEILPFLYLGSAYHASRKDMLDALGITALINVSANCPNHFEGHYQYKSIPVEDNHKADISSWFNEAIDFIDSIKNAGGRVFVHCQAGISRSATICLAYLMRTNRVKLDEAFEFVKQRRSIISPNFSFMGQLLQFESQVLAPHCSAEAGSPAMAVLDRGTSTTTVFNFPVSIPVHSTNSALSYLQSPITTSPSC
The experiment in a line: concentration-response of DUSP1 blockers – biochemical, in vitro, confirmation, dose response (AID 551). The conditions noted are these: pH 7; 22 °C.
Consider `CCOC(=O)N1CCC(NC(=O)c2cccn3c(=O)c4cc(Br)ccc4nc23)CC1` [4-[(2-bromo-11-keto-pyrido[2,1-b]quinazoline-6-carbonyl)amino]piperidine-1-carboxylic acid ethyl ester], for which the IC50 is > 50 µM.

With `O=C(c1n[nH]c(=O)c2ccccc12)N1CCN(C2c3ccccc3-c3ccccc32)CC1` [4-[[4-(9H-fluoren-9-yl)-1-piperazinyl]-oxomethyl]-2H-phthalazin-1-one], the IC50 was > 50 µM.

As for `Cc1ccc(NC(=O)COC(=O)c2ccc3c(c2)NC(=O)C2CCCN32)cc1C` (stereo not given) [4-keto-2,3,3a,5-tetrahydro-1H-pyrrolo[1,2-a]quinoxaline-7-carboxylic acid [2-(3,4-dimethylanilino)-2-keto-ethyl] ester], the IC50 was > 50 µM.

With `Cc1ccc(S(=O)(=O)NCC(C)NS(=O)(=O)c2ccc(C)cc2)cc1` (stereo not given) [4-methyl-N-[2-(tosylamino)propyl]benzenesulfonamide], the 50% inhibitory concentration (IC50) is > 50 µM.

For `COC(=O)C1C(C)=NC2=C(C(=O)c3ccccc32)C1c1ccc(-c2ccc(C(=O)O)cc2)o1` (stereo not given) [4-{5-[3-(methoxycarbonyl)-2-methyl-5-oxo-4,5-dihydro-1H-indeno[1,2-b]pyridin-4-yl]-2-furyl}benzoic acid], the IC50 is > 50 µM.

In the case of `c1ccc(SCc2nc(-c3ccncc3)no2)cc1` [4-{5-[(phenylthio)methyl]-1,2,4-oxadiazol-3-yl}pyridine], the IC50 is > 50 µM.

`CC(C)(C)N1C(=O)Cc2c1nc(N)c1c(N)nc(N3CCCCC3CO)c(C#N)c21` (stereo not given) [5,6-bis(azanyl)-3-tert-butyl-8-[2-(hydroxymethyl)piperidin-1-yl]-2-oxidanylidene-1H-pyrrolo[2,3-c][2,7]naphthyridine-9-carbonitrile]: the IC50 is > 50 µM.

For `COc1cc(/C=C(/C#N)c2ccc(F)cc2)ccc1OCc1ccc(C(=O)O)o1` [5-({4-[2-cyano-2-(4-fluorophenyl)vinyl]-2-methoxyphenoxy}methyl)-2-furoic acid], the concentration for half-maximal inhibition (IC50) is > 50 µM.

As for `COc1ccc(Br)cc1C=c1sc2nc(-c3ccco3)nn2c1=O` [5-[(5-bromanyl-2-methoxy-phenyl)methylidene]-2-(furan-2-yl)-[1,3]thiazolo[3,2-b][1,2,4]triazol-6-one], the IC50 is 4.49 µM.

As to `CCOc1cc(/C=C(/C#N)c2ccc(F)cc2)ccc1OCc1ccc(C(=O)O)o1` [5-[[4-[(E)-2-cyano-2-(4-fluorophenyl)ethenyl]-2-ethoxyphenoxy]methyl]furan-2-carboxylic acid], the IC50 was determined as 36.1 µM.

`N#Cc1c(NC(=O)c2ccc(Br)o2)n(-c2ccccc2)c2nc3ccccc3nc12` [5-bromanyl-N-(3-cyano-1-phenyl-pyrrolo[3,2-b]quinoxalin-2-yl)furan-2-carboxamide]: the IC50 was found to be 14 µM.

`Cc1cccc(N2CCN(C(=O)Cc3c(C(=O)O)[nH]c4ccc(Cl)cc34)CC2)c1C` [5-chloranyl-3-[2-[4-(2,3-dimethylphenyl)piperazin-1-yl]-2-oxidanylidene-ethyl]-1H-indole-2-carboxylic acid] returned an IC50 of 25.8 µM.

Regarding `CCCCCNC(=O)c1ccc2c(=O)[nH]c3c(C(=O)NCC4CCCO4)sc(=S)n3c2c1` (stereo not given) [5-oxo-N3-(2-oxolanylmethyl)-N8-pentyl-1-sulfanylidene-4H-thiazolo[3,4-a]quinazoline-3,8-dicarboxamide], the IC50 came out at 38.4 µM.

For the molecule `COc1ccc(-c2cn3c(C)c(C(=O)Nc4cccc(C)n4)sc3n2)cc1` [6-(4-methoxyphenyl)-3-methyl-N-(6-methyl-2-pyridinyl)-2-imidazo[2,1-b]thiazolecarboxamide], the IC50 was > 50 µM.

For the molecule `Cc1ccc(C)c(-n2nnnc2SCC(=O)c2ccc3c(c2)NC(=O)CO3)c1` [6-[2-[1-(2,5-dimethylphenyl)tetrazol-5-yl]sulfanylacetyl]-4H-1,4-benzoxazin-3-one], the IC50 was > 50 µM.

`CN1Cc2cc(C(=O)c3cc(Cl)cc(CSc4ncccn4)c3O)cnc2NC1=O` [6-[5-chloranyl-2-oxidanyl-3-(pyrimidin-2-ylsulfanylmethyl)phenyl]carbonyl-3-methyl-1,4-dihydropyrido[2,3-d]pyrimidin-2-one]: the IC50 is > 50 µM.

Take `Cc1nc2c(C(=O)NCCC3=CCCCC3)c[nH]n2c(=O)c1Cl` [6-chloro-N-(2-cyclohex-1-en-1-ylethyl)-7-hydroxy-5-methylpyrazolo[1,5-a]pyrimidine-3-carboxamide]: the IC50 stood at 31.1 µM.

As for `O=C1CC(c2ccccc2)c2cc(O)ccc2O1` (stereo not given) [6-hydroxy-4-phenyl-3,4-dihydro-2H-1-benzopyran-2-one], the midpoint of inhibition, the IC50, lay at 49.2 µM.

For `O=C(c1ccc2c(=O)n(C3CCCC3)c(=S)[nH]c2c1)N1CCN(C2CCCCC2)CC1` [7-[(4-cyclohexyl-1-piperazinyl)-oxomethyl]-3-cyclopentyl-2-sulfanylidene-1H-quinazolin-4-one], the IC50 was > 50 µM.

In the case of `O=c1c2ccc[nH]c-2c(Nc2ccc(S(=O)(=O)N3CCCCCC3)cc2)n1Cc1ccccc1` [7-[[4-(azepan-1-ylsulfonyl)phenyl]amino]-6-(phenylmethyl)-7H-pyrrolo[3,4-b]pyridin-5-one], the 50% inhibitory concentration (IC50) was > 50 µM.

As for `CCCCOc1ccccc1P(=O)(O)CP(=O)(c1ccccc1)c1ccccc1` [(2-butoxyphenyl)-(diphenylphosphorylmethyl)phosphinic acid], the IC50 is > 50 µM.

Turning to `O=C(c1ccc(-c2ccccc2)cc1)N1CCN(Cc2ccccn2)CC1` [(4-phenylphenyl)-[4-(2-pyridinylmethyl)-1-piperazinyl]methanone], the IC50 is > 50 µM.

In turn, `O=C(c1cccs1)c1no[n+]([O-])c1C(=O)c1cccs1` [(5-oxidanidyl-4-thiophen-2-ylcarbonyl-1,2,5-oxadiazol-5-ium-3-yl)-thiophen-2-yl-methanone] gave an IC50 of 3.49 µM.

As to `Cc1cc2n(n1)SC(Nc1ccccc1)N2` (stereo not given) [(6-methyl-2,5-dihydropyrazolo[1,5-b][1,2,4]thiadiazol-2-yl)-phenyl-amine], the IC50 is > 50 µM.

For `Nc1c(N2CCCC2)cc(Cl)c2nonc12` [(7-chloro-5-pyrrolidino-benzofurazan-4-yl)amine], the IC50 is > 50 µM.

For the molecule `[O-]/[N+](=C/c1ccc(F)cc1)c1ccccc1` [(E)-(4-fluorobenzylidene)(phenyl)azane oxide], the IC50 is > 50 µM.

Molecule `CC1=C(/C=C/C(C)=C/C=C/C(C)=C/C(=O)O)C(C)(C)CCC1` [ALL-TRANS-RETINOIC ACID] gave an IC50 of 27.1 µM.

With `CCCCNC(=O)CSc1nnc(-c2ccco2)n1C` [MLS000033335], the IC50 is > 50 µM.

As to `CC(=O)[C@@H]1[C@@H]2C(=O)N(c3ccc(F)c(Cl)c3)C(=O)[C@@H]2C2c3ccccc3C=CN21` (stereo not given in full) [MLS000040594], the IC50 was > 50 µM.

As for `COCCCn1c(N)c(C(=O)NCCC(C)C)c2nc3ccccc3nc21` [MLS000041744], the midpoint of inhibition, the IC50, lay at 26.2 µM.

As for `COC(=O)N(c1ccc(OC)cc1)P1(=S)OCCC(C)O1` (stereo not given) [MLS000043492], the IC50 is > 50 µM.

Regarding `O=C(NC1CC1)c1c[nH]c2ccc(S(=O)(=O)Nc3cccc(C(F)(F)F)c3)cc2c1=O` [MLS000046685], the IC50 was > 50 µM.

Take `CCn1c(SCC(=O)Nc2ccc3c(c2)c2ccccc2n3CC)nnc1-c1ccco1` [MLS000050867]: the midpoint of inhibition, the IC50, lay at 11.4 µM.

For the molecule `CC(NC(=O)c1ccc2c(c1)OCO2)C1CCCO1` (stereo not given) [MLS000065753], the IC50 is > 50 µM.

`O=C1C=Cc2ccccc2/C1=C/NC12CN3CCN(CN(C3)C1)C2` [MLS000071484]: the IC50 was > 50 µM.
